We go through 11 molecules from patent US20250282799A1, “SUBSTITUTED PYRIDO[4,3-d]PYRIMIDINES AS KRAS MODULATORS” (Alterome Therapeutics, Inc., priority 2023, published 2025).

Each structure is given as a SMILES string.

Data set [1] in a line: Pharmacokinetic evaluation, single dosing (oral and intravenous) in rats. In kind it is in vivo, male Sprague-Dawley rats. The arrangement: unit not given here. To be noted: rat, plasma. Here is the method:
Pharmacokinetic profile for test compound was measured by single dosing in male Sprague-Dawley rats. Animal weights were typically over 200 grams, and animals were allowed to acclimate to their new environment for at least 3 days prior to the initiation of any studies. One set of animals was dosed intravenous with test compound, 2 mg/kg in 20% PEG400, 10% HS-15 Solutol, 70% 50 mM citrate buffer (pH 4.0). Intravenous dosing solution concentration was 1.0 mg/mL. Time of blood sampling was 5 minutes, 15 minutes, 30 minutes, 1 hour, 2 hours, 4 hours, 8 hours, and 24 hours following intravenous dosing. Another set of animals was dosed orally with test compound, 30 mg/kg in 20% PEG400, 10% HS-15 Solutol, 70% 50 mM citrate buffer (pH 4.0). Oral dosing solution concentration was 3.0 mg/mL. Time of blood sampling was 15 minutes, 30 minutes, 1 hour, 2 hours, 4 hours, 8 hours, and 24 hours following oral dosing. Blood samples (˜0.2 mL/sample) were collected via jugular vein and placed in tubes containing Heparin-Na. The blood samples in tubes were mixed and then placed on wet ice prior to centrifugation for plasma. The blood samples were centrifuged at 4000 g for 5 minutes at 4° C. to obtain plasma. The obtained plasma was separated and stored frozen at approximately −80° C.
All the plasma samples were analyzed using a Shimadzu (DGU-405) HPLC with an API 6500+MS/MS system following the manufacturer's instructions. All the analytes were detected with positive-mode electrospray ionization (ES+). A standard curve for each test compound was generated and used to measure test compound concentrations in the rat plasma samples. Based on the time course sampling, an area under the curve (AUC) was calculated for the oral group and intravenous group. The percentage of rat bioavailability is calculated based on the equation shown below.
where F is bioavailability, AUCPO is area under curve of oral dosing, AUCIV is area under curve of intravenous dosing, DoseIV is the intravenous dose and DosePO is the oral dose. The oral dosing for the experiments presented in Table 5 was performed at 10 mg/kg unless noted otherwise.

The subject of data set [2] is KRAS G12V dependent lung adenocarcinoma cell line, NCI-H441. Description: Cellular pERK (Thr202/Tyr204) FRET/HTRF assay. The class given is cell-based. Particulars: Homo sapiens. The method, boiled down:
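Read-out is a wash-free FRET sandwich immunoassay for endogenous ERK1/2 phosphorylated on Thr202/Tyr204. Signal was measured in NCI-H441 lung adenocarcinoma cells after 1 hr compound exposure at 37 °C. IC50 values come from fitted concentration-response curves.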
(In general: Time-resolved FRET reads energy transfer from a long-lived donor to a nearby acceptor.)

The target of another data set is KRAS (G12D)/CRAF (Homo sapiens (Human), UniProt P01116, G12D). Description: TR-FRET biochemical KRAS:CRAF protein:protein interaction assay, KRAS (G12D). The class given is binding. To be noted: GMPPNP loaded Biotin-KRAS (G12D), FLAG CRAF RBD; read-out: TR-Fret_PPI KRAS (G12D)/CRAF IC50. The method, boiled down:
(§1)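 Compound (10-point 3-fold series, 1% DMSO final) preincubated 30 min at room temperature with 20 nM biotin-KRAS mutant loaded with GMPPNP, in Hepes pH7.3 buffer with 5 mM MgCl2 and 10 uM GMP-PNP. Then 100 nM FLAG-CRAF RBD for 150 min, 1 nM Tb-anti-FLAG/5 nM SA-XL665 for 90 min; IC50 from normalized 665/620 ratio, 4-parameter fit.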

Another data set concerns the target KRAS (G12V)/CRAF (Homo sapiens (Human), UniProt P01116, G12V). The experiment in a line: TR-FRET biochemical KRAS:CRAF protein:protein interaction assay, KRAS (G12V). In kind it is binding. To be noted: GMPPNP loaded Biotin-KRAS (G12V), FLAG CRAF RBD; read-out: TR-Fret_PPI KRAS (G12V)/CRAF IC50. The gist of the method: as §1
[3] abbreviates: NCI-H441, pERK HTRF, NCI-H441 cells (KRAS G12V).
Where [4] appears, read: NCI-H441, cellular pERK (Thr202/Tyr204) HTRF, NCI-H441 cells.

Chain of KRAS (G12D)/CRAF (P01116-2 other isoform, or with tags, fused parts or gaps G12D): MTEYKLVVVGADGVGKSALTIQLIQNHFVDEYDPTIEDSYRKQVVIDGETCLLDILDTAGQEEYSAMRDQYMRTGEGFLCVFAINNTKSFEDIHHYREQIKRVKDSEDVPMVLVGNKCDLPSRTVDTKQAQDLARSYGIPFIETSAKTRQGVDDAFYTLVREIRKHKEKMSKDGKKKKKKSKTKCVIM
Chain of KRAS (G12V)/CRAF (P01116-2 other isoform, or with tags, fused parts or gaps G12V): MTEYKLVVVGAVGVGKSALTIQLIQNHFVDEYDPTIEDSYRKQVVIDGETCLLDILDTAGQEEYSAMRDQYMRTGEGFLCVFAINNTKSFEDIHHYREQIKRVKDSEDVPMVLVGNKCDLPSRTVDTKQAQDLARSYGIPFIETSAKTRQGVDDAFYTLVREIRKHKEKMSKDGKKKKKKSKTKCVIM

Regarding `[2H]C([2H])(Oc1nc(N2CCCO[C@H]3C(F)[C@H]32)c2cnc(-c3cc(N)cc4ccc(F)c(C#C)c34)c(F)c2n1)[C@@]12CCCN1C[C@H](F)C2` (stereo in doubt) [Example 89, 5-Ethynyl-6-fluoro-4-(8-fluoro-4-((1R,7S,8R)-8-fluoro-2-oxa-6-azabicyclo[5.1.0]octan-6-yl)-2-(((2R,7aS)-2-fluorotetrahydro-1H-pyrrolizin-7a(5H)-yl)methoxy-d2)pyrido[4,3-d]pyrimidin-7-yl)naphthalen-2-amine], in data set [1], the “IV (dose 2 mg/kg) (AUC/D) (h*mg/mL)” value is given as 323 and the “PO (dose 10 mg/kg) (AUC/D) (h*mg/mL)” value was determined as 22. The IC50 in data set [2] (setting [3]) was < 50 nM.

On to `[2H]C([2H])(Oc1nc(N2CCCO[C@H]3[C@H](F)[C@H]32)c2cnc(-c3cc(N)cc4cc(F)c(F)c(C#C)c34)c(F)c2n1)[C@@]12CCCN1C[C@H](F)C2` [Example 24, 5-Ethynyl-6,7-difluoro-4-(8-fluoro-4-((1R,7S,8R)-8-fluoro-2-oxa-6-azabicyclo[5.1.0]octan-6-yl)-2-(((2R,7aS)-2-fluorotetrahydro-1H-pyrrolizin-7a(5H)-yl)methoxy-d2)pyrido[4,3-d]pyrimidin-7-yl)naphthalen-2-amine], for which, in data set [1], the “IV (dose 2 mg/kg) (AUC/D) (h*mg/mL)” value amounted to 405 and the “PO (dose 10 mg/kg) (AUC/D) (h*mg/mL)” value is listed as 35. Besides, in data set [2] (setting [3]), the IC50 was < 50 nM.

For `[2H]C([2H])([2H])Oc1c(F)ccc2cc(N)cc(-c3ncc4c(N5CCCC[C@H]6[C@H](F)[C@H]65)nc(OC([2H])([2H])[C@@]56CCCN5C[C@H](F)C6)nc4c3F)c12` [Example 58, 6-Fluoro-4-(8-fluoro-4-((1S,7R,8S)-8-fluoro-2-azabicyclo[5.1.0]octan-2-yl)-2-(((2R,7aS)-2-fluorotetrahydro-1H-pyrrolizin-7a(5H)-yl)methoxy-d2)pyrido[4,3-d]pyrimidin-7-yl)-5-(methoxy-d3)naphthalen-2-amine], in data set [1], the “IV (dose 2 mg/kg) (AUC/D) (h*mg/mL)” value was determined as 1401 and the “PO (dose 10 mg/kg) (AUC/D) (h*mg/mL)” value amounted to 432. The IC50 in data set [2] (setting [3]) was < 50 nM.

Take `[2H]C([2H])([2H])Oc1c(F)ccc2cc(N)cc(-c3ncc4c(N5CCOC[C@H]6[C@H](F)[C@H]65)nc(OC([2H])([2H])[C@@]56CCCN5C[C@H](F)C6)nc4c3F)c12` [Example 90, 6-Fluoro-4-(8-fluoro-4-((1S,7S,8S)-8-fluoro-5-oxa-2-azabicyclo[5.1.0]octan-2-yl)-2-(((2R,7aS)-2-fluorotetrahydro-1H-pyrrolizin-7a(5H)-yl)methoxy-d2)pyrido[4,3-d]pyrimidin-7-yl)-5-(methoxy-d3)naphthalen-2-amine]: in data set [1], the “IV (dose 2 mg/kg) (AUC/D) (h*mg/mL)” value is reported as 1086 and the “PO (AUC/D) (h*mg/mL), dose 30 mg/kg” value stood at 352. For the same molecule, in data set [2] (setting [3]), the IC50 is < 50 nM.

In the case of `[2H]C([2H])([2H])Oc1c(F)ccc2cc(N)cc(-c3ncc4c(N5CCCO[C@H]6[C@H](F)[C@H]65)nc(OC([2H])([2H])[C@@]56CCCN5C[C@H](F)C6)nc4c3F)c12` [Example 91, 6-Fluoro-4-(8-fluoro-4-((1R,7S,8R)-8-fluoro-2-oxa-6-azabicyclo[5.1.0]octan-6-yl)-2-(((2R,7aS)-2-fluorotetrahydro-1H-pyrrolizin-7a(5H)-yl)methoxy-d2)pyrido[4,3-d]pyrimidin-7-yl)-5-(methoxy-d′3) naphthalen-2-amine], in data set [1], the “IV (dose 2 mg/kg) (AUC/D) (h*mg/mL)” value is listed as 609 and the “PO (dose 10 mg/kg) (AUC/D) (h*mg/mL)” value amounted to 142. The IC50 in data set [2] (setting [3]) was < 50 nM.

For `[2H]C([2H])(Oc1nc(N2CCCC[C@H]3[C@H](F)[C@H]32)c2cnc(-c3cc(O)cc4ccc(F)c(C#C)c34)c(F)c2n1)[C@@]12CCCN1C[C@H](F)C2` [Example 216, 5-ethynyl-6-fluoro-4-(8-fluoro-4-((1S,7R,8S)-8-fluoro-2-azabicyclo[5.1.0]octan-2-yl)-2-(((2R,7aS)-2-fluorotetrahydro-1H-pyrrolizin-7a(5H)-yl)methoxy-d2)pyrido[4,3-d]pyrimidin-7-yl)naphthalen-2-ol], in data set [1], the “IV (dose 2 mg/kg) (AUC/D) (h*mg/mL)” value amounted to 96 and the “PO (dose 10 mg/kg) (AUC/D) (h*mg/mL)” value came to 0.0. Also, the IC50 in data set [2] (setting [4]) was < 50 nM.

Turning to `[2H]C([2H])(Oc1nc(N2CCOC[C@H]3[C@H](F)[C@H]32)c2cnc(-c3cc(O)cc4ccc(F)c(C#C)c34)c(F)c2n1)[C@@]12CCCN1C[C@H](F)C2` [Example 217, 5-Ethynyl-6-fluoro-4-(8-fluoro-4-((1S,7S,8S)-8-fluoro-5-oxa-2-azabicyclo[5.1.0]octan-2-yl)-2-(((2R,7aS)-2-fluorotetrahydro-1H-pyrrolizin-7a(5H)-yl)methoxy-d2)pyrido[4,3-d]pyrimidin-7-yl)naphthalen-2-ol], in data set [1], the “IV (dose 2 mg/kg) (AUC/D) (h*mg/mL)” value is given as 143 and the “PO (AUC/D) (h*mg/mL), dose 30 mg/kg” value is listed as 0.5. In data set [2] (setting [4]), the IC50 is < 50 nM.

For `[2H]C([2H])(Oc1nc(N2CCOC[C@H]3[C@H](F)[C@H]32)c2cnc(-c3cc(O)cc4ccc(Cl)c(C#C)c34)c(F)c2n1)[C@@]12CCCN1C[C@H](F)C2` [Example 260, 6-chloro-5-ethynyl-4-(8-fluoro-4-((1S,7S,8S)-8-fluoro-5-oxa-2-azabicyclo[5.1.0]octan-2-yl)-2-(((2R,7aS)-2-fluorotetrahydro-1H-pyrrolizin-7a(5H)-yl)methoxy-d2)pyrido[4,3-d]pyrimidin-7-yl)naphthalen-2-ol], in data set [1], the “IV (dose 2 mg/kg) (AUC/D) (h*mg/mL)” value is on record as 129 and the “PO (dose 10 mg/kg) (AUC/D) (h*mg/mL)” value is 0.4. Moreover, in data set [2] (setting [4]), the IC50 was < 50 nM.

`[2H]C([2H])(Oc1nc(N2CCCC[C@H]3[C@H](Cl)[C@H]32)c2cnc(-c3cc(N)cc4ccc(F)c(C#C)c34)c(F)c2n1)[C@@]12CCCN1C[C@H](F)C2` [Example 342, 4-(4-((1S,7R,8S)-8-chloro-2-azabicyclo[5.1.0]octan-2-yl)-8-fluoro-2-(((2R,7aS)-2-fluorotetrahydro-1H-pyrrolizin-7a(5H)-yl)methoxy-d2)pyrido[4,3-d]pyrimidin-7-yl)-5-ethynyl-6-fluoronaphthalen-2-amine]: the IC50 was 9.04 nM at KRAS (G12D)/CRAF, 54.7 nM at KRAS (G12V)/CRAF and < 50 nM in data set [2] (setting [4]).

`[2H]C([2H])(Oc1nc(N2CCCC[C@@H]3[C@H](Cl)[C@@H]32)c2cnc(-c3cc(N)cc4ccc(F)c(C#C)c34)c(F)c2n1)[C@@]12CCCN1C[C@H](F)C2` [Example 343, 4-(4-((1R,7S,8S)-8-chloro-2-azabicyclo[5.1.0]octan-2-yl)-8-fluoro-2-(((2R,7aS)-2-fluorotetrahydro-1H-pyrrolizin-7a(5H)-yl)methoxy-d2)pyrido[4,3-d]pyrimidin-7-yl)-5-ethynyl-6-fluoronaphthalen-2-amine]: the IC50 at KRAS (G12D)/CRAF is 3000 nM; at KRAS (G12V)/CRAF, ≥ 10000 nM; in data set [2] (setting [4]), 500 to 10000 nM.

On to `[2H]C([2H])(Oc1nc(N2CCCC[C@H]3[C@@H](Cl)[C@H]32)c2cnc(-c3cc(N)cc4ccc(F)c(C#C)c34)c(F)c2n1)[C@@]12CCCN1C[C@H](F)C2` [Example 344, 4-(4-((1S,7R,8R)-8-chloro-2-azabicyclo[5.1.0]octan-2-yl)-8-fluoro-2-(((2R,7aS)-2-fluorotetrahydro-1H-pyrrolizin-7a(5H)-yl)methoxy-d2)pyrido[4,3-d]pyrimidin-7-yl)-5-ethynyl-6-fluoronaphthalen-2-amine], for which the IC50 on KRAS (G12D)/CRAF is 1930 nM; on KRAS (G12V)/CRAF it was ≥ 10000 nM; in data set [2] (setting [4]), 500 to 10000 nM.
